Consider one substance from patent US12161752B2, “Compositions and methods for the treatment of anterior blepharitis and posterior blepharitis” (priority 2019, dated 2024).

Data set [1] can be described thus: Clinic based application of topical Ivermectin for the treatment of inflammatory blepharitis. Type of data set: in vivo. Here is the method:
In another embodiment, the pharmaceutical composition is administered periodically. In an embodiment, the pharmaceutical composition is applied daily for 3 days and the treatment is repeated for 3 days again after 2 weeks. In most cases this is sufficient for a significant therapeutic effect. The treatment using this frequency can be repeated again if the condition recurs but this is necessary only in a relatively small number of cases. The intermittent dosage of the Ivermectin provides the benefit of a lower amount of Ivermectin use and thereby lowers the possibility of adverse effects.
In another embodiment, a subject with anterior and posterior blepharitis is identified and the existing symptoms and signs noted. The pharmaceutical composition is applied by the practitioner using for example, slit lamp magnification to accurately identify the areas on the eyelid margin where the pharmaceutical composition is to be applied. A topical anaesthetic drop is applied in the lower conjunctival sac of the eye 5 to 10 minutes prior. Temporary anaesthetization will attenuate the lacrimal reflex thereby minimizing the production of tear fluid during the application process.
The pharmaceutical composition is applied as a film precisely along the length of the lid margin with the applicator just covering the openings of the Meibomian glands but taking care as to not further extend the composition into the mucosal surface. The pharmaceutical composition is extended proximally to cover the lash roots and the skin area in between. The lid is held reflected away from the eyeball until the pharmaceutical composition sets and dries in place. The pharmaceutical composition takes the form of an adhesive film or coating on the lid margin. This procedure is repeated for all the 4 eyelid margins. The administration of the pharmaceutical composition results in enhanced meibum production.
A clinic based application of topical Ivermectin for the treatment of inflammatory blepharitis has been successful; both for cases where Demodex species were not isolated which constituted the majority of cases of Blepharitis treated, and the smaller number of cases where Demodex species were isolated. Most of these were cases with longstanding disease which had been unresponsive to a wide range of currently accepted treatment modalities. More than 95% had full relief of symptoms and a remarkable reduction in signs of inflammation of the lid margins. 87% of the cases required only 1 treatment cycle for marked improvement or complete remission of symptoms.

The conditions of data set [2]: oral, cited from earlier work.

Regarding “mixture containing 5-O-demethyl-22,23-dihydroavermectin A1a and 5-O-demethyl-25-de(1-methylpropyl)-25-(1-methylethyl)-22,23 dihydroavermectin A1a [Ivermectin]”, in data set [1] (topical application to lid margins), the “cases that required only 1 treatment cycle for marked improvement or complete remission of symptoms” value worked out at 87%. Also, the “cases with full relief of symptoms and a remarkable reduction in signs of inflammation of the lid margins” value in data set [1] (topical application to lid margins, cases with and without Demodex isolated, mostly longstanding disease unresponsive to accepted treatments) was “More than 95%”. The “Meibomian gland orifices and secretions after treatment” value in data set [1] (topical application, a significant number of cases) is “re-opening of previously closed Meibomian gland orifices”. Moreover, the “overall outcome of treatment of inflammatory blepharitis” value in data set [1] (topical application, cases with and without Demodex species isolated) is on record as “successful”. The “dry eye symptoms after treatment” value in data set [1] (topical application, majority of the cases where dry eye symptoms were present) is recorded as “remarkable improvement”. Also, the “adverse effect at high doses” value in data set [2] (high doses) is “paralysis”. Moreover, the safety profile entry in data set [2] is listed as “good safety profile”.
